{"source": "patent US20070027143A1", "about": "“Novel substituted 2,3-benzodiazepine derivatives” (priority 2003, published 2007)", "key": {"CD1 mice [1]": {"test_system": "CD1 mice", "experiment": "Anticonvulsant activity, pentetrazole induced seizures", "assay_type": "in vivo", "settings": "Mus musculus; po.; read-out: Pentetrazol ED50", "outline": "(§1)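 Oral dosing, 3 doses, 10 male CD1 mice/dose; convulsant given usually 60 min post-dose; endpoints clonic-tonic seizures and lethality.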"}, "CD1 mice [2]": {"test_system": "CD1 mice", "experiment": "Anticonvulsant activity, strychnine induced seizures", "assay_type": "in vivo", "settings": "Mus musculus; po.; read-out: Strychnine ED50", "outline": "as §1"}, "CD1 mice [3]": {"test_system": "CD1 mice", "experiment": "Anticonvulsant activity, bemegride induced seizures", "assay_type": "in vivo", "settings": "Mus musculus; po.; read-out: Bemegride ED50", "outline": "as §1"}, "CD1 mice [4]": {"test_system": "CD1 mice", "experiment": "Anticonvulsant activity, bicuculline induced seizures", "assay_type": "in vivo", "settings": "Mus musculus; po.; read-out: Bicuculline ED50", "outline": "as §1"}, "CD1 mice [5]": {"test_system": "CD1 mice", "experiment": "Anticonvulsant activity, 4-aminopyridine induced seizures", "assay_type": "in vivo", "settings": "Mus musculus; po.; read-out: 4-AP ED50", "outline": "as §1"}, "Lewis rats": {"test_system": "Lewis rats", "experiment": "Autoimmune encephalomyelitis model, neurological (clinical) symptoms", "assay_type": "in vivo", "settings": "for Neurological symptoms (change, %) / change in vivo at 30 mg/kg: 30 mg/kg ip.; for Neurological symptoms (change, %): day 24 after immunization; for change in vivo at 15 mg/kg / change in vivo at 30 mg/kg: Rattus norvegicus, ip, read-out: Neurological symptoms (change compared to controls, %); for change in vivo at 15 mg/kg: 15 mg/kg ip."}, "CD1 mice [6]": {"test_system": "CD1 mice", "experiment": "Anti-tremor effect, harmaline induced tremor", "assay_type": "in vivo", "settings": "po., Litchfield-Wilcoxon, limits in brackets"}, "BN rats": {"test_system": "BN rats", "experiment": "Bronchial hyperresponsiveness of ovalbumin sensitized, antigen challenged BN rats (tracheal rings, acetylcholine)", "assay_type": "in vivo", "settings": "3.0 mg/kg po, 2 hours pre-challenge, mean ± SE", "description": "Bronchial hyperresponsiveness (BHR) and airway eosinophilia (AEP) are characteristic features of bronchial asthma. BHR is typified by an exaggerated response to a wide variety of stimuli that can induce an increased resistance to airflow in the airways. AEP is a result of prolonged eosinophil infiltration, mast cell, and T cell activation in the airways. In actively (e.g., ovalbumin) immunized rats (e.g., Brown Norway [BN] strain), repeated sensitization followed by antigenic challenge results in lung eosinophilia and bronchial hyperresponsiveness to different spasmogens (e.g., acetylcholine). This is the most frequently employed model for studying potential anti-asthmatic effects of new chemical entities.\nBN rats were actively immunized with allergen (ovalbumin). On day one, rats were sensitized with the subcutaneous administration of ovalbumin suspended in Al(OH)3 (2.5 μg ovalbumin +20 mg Al(OH)3 in 0.5 ml saline). Booster injections (same dose and same route) were given at day 14 and 21. Simultaneously at each occasion 0.25 ml of Bordatella pentussis vaccine was injected intraperitoneally. On day 28, animals were challenged by inhalation of the antigen (vaporized 1% OVA solution for 1 hour). Test compounds were administered orally 2 hours pre-challenge.\n48 hours following challenge, they were sacrificed by an overdose of urethane (4-5 ml of 15% urethane given i.p.), bronchoalveolar lavage fluid (BALF) was obtained, and tracheae dissected from the animals. Eosinophil cell count (cells/ml BALF) was determined manually using a selective stain for eosinophils and counting the cells in a Buerker chamber. BHR was determined using tracheal rings suspended in an organ bath. After an equilibration period of 30 minutes, cumulative concentration response curves to acetylcholine were determined. Maximal response of control (unchallenged, non-treated) tracheal rings is obtained at 10^−3 M acetylcholine. The height of this response is defined as 100%. All other contractions are expressed as a percentage and related to the control response."}, "epilepsy patients": {"test_system": "epilepsy patients", "settings": "Bialer et al.; cited from earlier work"}}, "note": "Read-outs that look alike come from different tables or passages of the source."}
{"molecule": "CC(=O)N1N=C(c2ccc(N)cc2)c2cc3c(cc2C[C@H]1C)OCO3", "note": "[GYKI 53773, (R)-7-acetyl-5-(4-aminophenyl)-8,9-dihydro-8-methyl-7H-1,3-dioxolo[4,5-h][2,3]benzodiazepine, reference compound]", "values": [{"measurement": "ED50", "setting": "CD1 mice [1]", "value": 16.8, "unit": "mg/kg"}, {"measurement": "ED50", "setting": "CD1 mice [2]", "value": 17.4, "unit": "mg/kg"}, {"measurement": "ED50", "setting": "CD1 mice [3]", "value": 23.9, "unit": "mg/kg"}, {"measurement": "ED50", "setting": "CD1 mice [4]", "value": 14.6, "unit": "mg/kg"}, {"measurement": "ED50", "setting": "CD1 mice [5]", "value": 8.4, "unit": "mg/kg"}, {"measurement": "Neurological symptoms (change, %)", "setting": "Lewis rats; female rats", "value": "−41", "unit": "%"}, {"measurement": "Neurological symptoms (change, %)", "setting": "Lewis rats; male rats", "value": "−26", "unit": "%"}, {"measurement": "change in vivo at 15 mg/kg", "setting": "Lewis rats; female rats, 0-8 day", "value": -60, "unit": "%"}, {"measurement": "change in vivo at 15 mg/kg", "setting": "Lewis rats; female rats, 0-14 day", "value": -63, "unit": "%"}, {"measurement": "change in vivo at 15 mg/kg", "setting": "Lewis rats; male rats, 0-8 day", "value": -8, "unit": "%"}, {"measurement": "change in vivo at 15 mg/kg", "setting": "Lewis rats; male rats, 0-14 day", "value": 7, "unit": "%"}, {"measurement": "change in vivo at 30 mg/kg", "setting": "Lewis rats; female rats, 0-8 day", "value": -38, "unit": "%"}, {"measurement": "change in vivo at 30 mg/kg", "setting": "Lewis rats; female rats, 0-14 day", "value": -27, "unit": "%"}, {"measurement": "change in vivo at 30 mg/kg", "setting": "Lewis rats; male rats, 0-8 day", "value": -43, "unit": "%"}, {"measurement": "change in vivo at 30 mg/kg", "setting": "Lewis rats; male rats, 0-14 day", "value": -29, "unit": "%"}, {"measurement": "ED50, tremor induced by Harmaline 40 mg/kg ip.", "setting": "CD1 mice [6]", "value": "9.0(−7.4-10.9) mg/kg po."}, {"measurement": "MAX: relative contraction compared to the control at a maximal Ach concentration", "setting": "BN rats", "value": "85 ± 43", "unit": "%"}, {"measurement": "Activity in clinical trials on epilepsy patients", "setting": "epilepsy patients", "value": "active"}]}
